One data set is described as follows: in vitro. Particulars: for remaining at 5 h: isolated enzyme pronase.
The next data set has as its target T1, Nodal (Homo sapiens, UniProt Q96S42).
T1 construct: host or cells: added to embryonic carcinoma P19 cells
T1 sequence (Q96S42 238-347): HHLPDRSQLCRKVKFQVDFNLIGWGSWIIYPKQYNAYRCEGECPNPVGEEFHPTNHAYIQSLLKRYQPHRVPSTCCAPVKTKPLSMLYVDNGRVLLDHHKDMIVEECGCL
Kind of data set: Inhibition of Nodal-induced Smad2 phosphorylation in P19 cells (Western blot, anti-phospho Smad antibody). It counts as cell-based. As to conditions: for ability to antagonize the signaling function of protein Nodal: carcinoma cells. On the procedure:
To validate the binding ability of the predicted ligands, we tested the ability of the bicycles to inhibit a known signaling event induced by Nodal. Specifically, we employed Western blot with anti-phospho Smad antibody to detect Nodal-induced phosphorylation of effector protein Smad2 in embryonic carcinoma P19 cells. FIG. 17a describes that treatment of P19 cells with 100 ng/mL Nodal for 1 hour in Dulbecco's Modified Eagles Media (DMEM) supplemented with 2.5% fetal bovine serum (FBS)+7.5% bovine serum albumin (BSA) induces increase in pSmad2 intensity. Nodal-induced increase in pSmad is abrogated when P19 cells are incubated with 100 ng/mL Nodal and known kinase inhibitors SB-431542. […] The bicyclic peptides serve as antagonists of Nodal at 100 micromolar concentration.
In general terms: In western blotting, separated proteins are transferred to a membrane and probed.

Numbered stars: 1 amine (or outer) side, 2 acyl side, 3 side chain; on linkers, the order of the positions; unused ones are H or OH. Bridge positions count the residues as written; N and C are the ends. Ends that are not written are not given here. Peptide text beside a SMILES is read from it. X1 = O=C(C=NOCCCCCCOc1cc(C[*:2])cc(C[*:3])c1)[*:1]; X2 = O=C(C=NOCc1cc(C[*:2])cc(C[*:3])c1)[*:1]; TSL6 = not defined here

Protocol for in vitro: The mixture was analyzed by ion-selective LCMS. […] Linear, disulfide and two bicycle compounds made from TSL-1 and TSL-6 linker were incubated with Pronase™ for the indicated period of time (up to 5 hours). The reaction was diluted and analyzed by Ion selective MS-UPLC. The numbers indicate % of intact compound remaining after 5 hours of digestion.
In another rigorous stability test, an aggressive cocktail of endo- and exoproteases (Pronase) were used to digest linear sequence [sequence]

As for `CC(C)C[C@@H]1NC(=O)[C@H](Cc2ccc(O)cc2)NC(=O)[C@@H]2CSCc3cc(cc(c3)OCCCCCCON=CC(=O)N[C@@H](Cc3c[nH]c4ccccc34)C(=O)N[C@@H](CC(=O)O)C(=O)N[C@@H](Cc3ccc(O)cc3)C(=O)N[C@@H](CCCNC(=N)N)C(=O)N[C@@H](CCC(=O)O)C(=O)N2)CSC[C@@H](C(=O)O)NC(=O)[C@H](CCC(=O)O)NC1=O` (WDYRECYLEC-OH; linker N-6-10 via X1; C-terminus assumed), the amount remaining (as a rule, what is left of the initial amount, in per cent) at 5 h in the data set “in vitro” was 68 ± 14%.
Take `CC(C)C[C@@H]1NC(=O)[C@H](Cc2ccc(O)cc2)NC(=O)[C@@H]2CSCc3cc(cc(c3)CSC[C@@H](C(=O)O)NC(=O)[C@H](CCC(=O)O)NC1=O)CON=CC(=O)N[C@@H](Cc1c[nH]c3ccccc13)C(=O)N[C@@H](CC(=O)O)C(=O)N[C@@H](Cc1ccc(O)cc1)C(=O)N[C@@H](CCCNC(=N)N)C(=O)N[C@@H](CCC(=O)O)C(=O)N2` (WDYRECYLEC-OH; linker N-6-10 via X2; C-terminus assumed): the half-life (commonly the time in which the quantity being followed falls by half) in the data set “in vitro” (Streptomyces griseus) was approximately 1440 min. The molecule further showed a fraction remaining at 5 h in the data set “in vitro” of 82 ± 13%.
On to `NC(=O)c1ccc(-c2nc(-c3ccc4c(c3)OCO4)c(-c3ccccn3)[nH]2)cc1` [SB-431542, reference compound], for which, on Nodal (P19 cells, 100 ng/mL Nodal, inhibitor concentration not given), the “Nodal-induced increase in pSmad with known kinase inhibitor” value was “abrogated”.
For `CC(C)C[C@H](NC(=O)[C@H](Cc1ccc(O)cc1)NC(=O)[C@H](CS)NC(=O)[C@H](CCC(=O)O)NC(=O)[C@H](CCCNC(=N)N)NC(=O)[C@H](Cc1ccc(O)cc1)NC(=O)[C@H](CC(=O)O)NC(=O)[C@H](Cc1c[nH]c2ccccc12)NC(=O)[C@@H](N)CO)C(=O)N[C@@H](CCC(=O)O)C(=O)N[C@@H](CS)C(=O)O` [reference compound] (H-SWDYRECYLEC-OH; N-terminus and C-terminus assumed), in “in vitro”, the fraction remaining at 5 h was found to be 0.4 ± 0.1%.
Same read-out and setting: the figure for `CC(C)C[C@@H]1NC(=O)[C@H](Cc2ccc(O)cc2)NC(=O)[C@@H](NC(=O)[C@H](CCC(=O)O)NC(=O)[C@H](CCCNC(=N)N)NC(=O)[C@H](Cc2ccc(O)cc2)NC(=O)[C@H](CC(=O)O)NC(=O)[C@H](Cc2c[nH]c3ccccc23)NC(=O)[C@@H](N)CO)CSSC[C@@H](C(=O)O)NC(=O)[C@H](CCC(=O)O)NC1=O` [reference compound] (H-SWDYRECYLEC-OH; disulfide 7-11; N-terminus and C-terminus assumed) is 0.9 ± 0.4%.
In the case of “SPCQRGHMFC (linker (positions not given here) via TSL6; reading uncertain; also: bicyclised with TSL6 linker) [bicyclic peptide 7]”, the “ability to antagonize the signaling function of protein Nodal” value in the data set with Nodal is on record as “have the ability to antagonize”.
The same measure, in the same setting: the entry for “SYCKRAHKNC (linker (positions not given here) via TSL6; reading uncertain; also: bicyclised with TSL6 linker) [bicyclic peptide 11]” is “have the ability to antagonize”.

These data come from US12391939B2, “Genetically-encoded bicyclic peptide libraries” (THE GOVERNORS OF THE UNIVERSITY OF ALBERTA, priority 2018, dated 2025).
